In ChEMBL document CHEMBL5465560, “Selectivity Literature for EUbOPEN Chemogenomic Library” (2024):
Blank lines part the entries; values can stand above or below the compound they belong to.

Legend:
[1] = biological target: T1, Serine/threonine-protein kinase Nek1 (Homo sapiens) (UniProt Q96PY6); assay: Selectivity interaction (Kinase panel (Z-LYTE Assay)) EUB0001632a NEK1; settings: at 10 µM
T1 sequence (whole entry): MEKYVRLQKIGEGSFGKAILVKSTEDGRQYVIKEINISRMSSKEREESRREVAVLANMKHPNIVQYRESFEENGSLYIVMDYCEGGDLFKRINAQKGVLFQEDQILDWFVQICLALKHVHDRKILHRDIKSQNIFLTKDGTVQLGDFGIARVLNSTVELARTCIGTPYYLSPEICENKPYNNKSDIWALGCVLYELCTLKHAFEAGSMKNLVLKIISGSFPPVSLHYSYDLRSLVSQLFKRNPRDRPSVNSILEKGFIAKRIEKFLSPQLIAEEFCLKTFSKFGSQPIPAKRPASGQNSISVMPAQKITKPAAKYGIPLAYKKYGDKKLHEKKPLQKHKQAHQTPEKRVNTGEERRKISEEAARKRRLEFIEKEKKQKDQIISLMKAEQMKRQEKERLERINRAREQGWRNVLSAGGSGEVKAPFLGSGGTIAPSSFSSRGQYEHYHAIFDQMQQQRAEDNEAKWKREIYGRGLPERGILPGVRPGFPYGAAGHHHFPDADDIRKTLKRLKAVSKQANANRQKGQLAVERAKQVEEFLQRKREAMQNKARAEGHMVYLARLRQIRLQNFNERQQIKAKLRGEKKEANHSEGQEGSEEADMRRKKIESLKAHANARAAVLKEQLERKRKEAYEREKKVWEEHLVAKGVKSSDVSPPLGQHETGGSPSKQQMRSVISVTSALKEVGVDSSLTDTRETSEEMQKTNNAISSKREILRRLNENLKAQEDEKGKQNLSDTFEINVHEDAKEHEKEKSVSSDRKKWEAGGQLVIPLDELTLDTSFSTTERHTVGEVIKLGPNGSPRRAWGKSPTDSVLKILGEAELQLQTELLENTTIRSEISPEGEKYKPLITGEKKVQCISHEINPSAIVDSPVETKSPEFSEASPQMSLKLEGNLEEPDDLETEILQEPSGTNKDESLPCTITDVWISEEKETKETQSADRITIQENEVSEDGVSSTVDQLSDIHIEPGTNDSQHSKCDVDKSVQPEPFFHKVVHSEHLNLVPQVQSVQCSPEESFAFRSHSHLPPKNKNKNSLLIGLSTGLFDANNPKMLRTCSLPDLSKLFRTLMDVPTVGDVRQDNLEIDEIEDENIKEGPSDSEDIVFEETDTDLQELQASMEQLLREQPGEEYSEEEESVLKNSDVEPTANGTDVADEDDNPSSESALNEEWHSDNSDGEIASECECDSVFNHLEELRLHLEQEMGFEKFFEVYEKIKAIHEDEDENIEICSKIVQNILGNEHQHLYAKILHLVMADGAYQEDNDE

[2] = biological target: Serine/threonine-protein kinase 26 (Homo sapiens, UniProt Q9P289); assay: Selectivity interaction (Ambit KINOMEscan and KiNATiv profiling in Jurkat cells) EUB0000090b STK26; format: cell-based; settings: at 1 µM
[3] = biological target: T2, Serine/threonine-protein kinase 36 (Homo sapiens) (UniProt Q9NRP7); assay: Selectivity interaction (KinomeScan (DiscoverX)) EUB0000045b STK36
T2 sequence (whole entry): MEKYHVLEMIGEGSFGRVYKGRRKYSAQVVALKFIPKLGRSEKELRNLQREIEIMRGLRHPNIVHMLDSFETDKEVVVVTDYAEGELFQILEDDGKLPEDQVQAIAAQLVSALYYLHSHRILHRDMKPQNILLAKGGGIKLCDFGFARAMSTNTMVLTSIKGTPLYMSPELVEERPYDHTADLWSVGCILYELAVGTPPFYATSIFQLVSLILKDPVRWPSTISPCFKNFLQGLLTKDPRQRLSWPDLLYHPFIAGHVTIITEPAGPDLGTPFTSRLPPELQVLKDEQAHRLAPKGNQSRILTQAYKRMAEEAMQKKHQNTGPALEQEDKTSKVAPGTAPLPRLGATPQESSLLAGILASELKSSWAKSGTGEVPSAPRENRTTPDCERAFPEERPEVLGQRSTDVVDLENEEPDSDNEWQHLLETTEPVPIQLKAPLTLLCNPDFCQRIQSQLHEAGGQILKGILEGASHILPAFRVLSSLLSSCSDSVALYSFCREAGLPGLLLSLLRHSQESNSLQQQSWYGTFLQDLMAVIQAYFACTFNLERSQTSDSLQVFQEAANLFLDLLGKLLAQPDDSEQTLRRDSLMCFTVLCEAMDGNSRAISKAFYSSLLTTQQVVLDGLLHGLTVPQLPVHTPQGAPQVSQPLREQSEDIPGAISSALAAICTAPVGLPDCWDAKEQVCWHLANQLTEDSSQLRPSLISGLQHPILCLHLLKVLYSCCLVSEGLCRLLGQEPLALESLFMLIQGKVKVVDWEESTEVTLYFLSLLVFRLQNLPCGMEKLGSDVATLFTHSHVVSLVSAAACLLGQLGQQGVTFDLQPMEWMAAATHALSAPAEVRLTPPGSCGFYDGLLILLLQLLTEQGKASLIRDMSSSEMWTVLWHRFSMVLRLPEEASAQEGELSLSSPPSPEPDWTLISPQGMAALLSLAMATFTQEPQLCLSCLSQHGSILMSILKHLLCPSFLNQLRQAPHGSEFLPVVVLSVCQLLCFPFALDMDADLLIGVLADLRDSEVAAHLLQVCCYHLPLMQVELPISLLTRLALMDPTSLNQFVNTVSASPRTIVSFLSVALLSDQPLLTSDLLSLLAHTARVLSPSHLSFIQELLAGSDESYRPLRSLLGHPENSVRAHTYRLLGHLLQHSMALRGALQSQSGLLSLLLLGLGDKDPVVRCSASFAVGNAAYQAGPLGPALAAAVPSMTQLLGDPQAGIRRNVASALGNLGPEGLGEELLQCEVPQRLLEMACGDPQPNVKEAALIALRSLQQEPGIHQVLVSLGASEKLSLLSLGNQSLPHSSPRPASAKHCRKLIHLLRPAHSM

Sequence of Serine/threonine-protein kinase 26 (Q9P289 2-416 limits assumed): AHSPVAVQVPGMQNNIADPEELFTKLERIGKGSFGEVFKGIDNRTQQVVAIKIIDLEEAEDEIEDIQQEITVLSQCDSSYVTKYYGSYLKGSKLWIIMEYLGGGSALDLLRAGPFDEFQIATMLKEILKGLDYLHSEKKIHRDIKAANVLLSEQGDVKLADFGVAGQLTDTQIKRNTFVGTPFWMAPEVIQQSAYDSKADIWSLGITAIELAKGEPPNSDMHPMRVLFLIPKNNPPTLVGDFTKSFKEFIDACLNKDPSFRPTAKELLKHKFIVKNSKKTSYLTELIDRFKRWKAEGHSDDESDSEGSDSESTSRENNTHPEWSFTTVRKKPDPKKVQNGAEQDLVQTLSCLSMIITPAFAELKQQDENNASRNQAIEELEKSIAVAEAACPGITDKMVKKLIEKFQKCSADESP

% of control [1]: -1.93%
SMILES: Cn1cc(-n2cnc3c(NCc4nc5cc(Cl)c(Cl)cc5[nH]4)nc(N4CCOCC4)nc32)cn1

SMILES: CN(C)C/C=C/C(=O)Nc1ccc(C(=O)N2CCCC(Nc3ncc(Cl)c(-c4c[nH]c5ccccc45)n3)C2)cc1 (centres undefined)
% of control [2]: 88%

SMILES: C=CC(=O)Nc1cc(-n2c(=O)ccc3cnc4ccc(-c5ccc(NS(C)(=O)=O)cc5)cc4c32)ccc1C
% of control ([3]; at 1 µM): 100%
% of control ([3]; at 10 µM): 100%
